In US8846711B2, “Heterocyclic acrylamides and their use as pharmaceuticals” (Fab Pharma S.A.S., priority 2009, dated 2014):
In brackets after ≈: the same amount, converted by molar mass.

Tests used:
S. aureus CIP 54.146 = test: MIC determination using broth microdilution method; assay type: cell-based; details: Staphylococcus aureus, CIP54 / MSSA, read-out: MIC (μg/ml) S. aureus CIP 54.146
Procedure: The compounds of the invention are useful antibacterial agents having a selective spectrum of activity in vitro against bacterial strains relying on FabI and related targets. […] The activity is presented as Minimum Inhibitory Concentration (MIC) expressed in μg/ml and was determined using broth microdilution or Agar dilution methods.
(§1) Antibacterial activity was determined on strains from Mutabilis internal collection.
This protocol is compliant with Clinical Laboratory Standards Institute (CLSI) methodology as described in M7-A7 document of the CLSI. The compound to be tested is diluted according to a geometric series of reason 2 in pure DMSO. Dilutions are transferred in sterile polystyrene microplates, followed by mid-log phase bacteria in cation-adjusted Muller-Hinton broth (ca-MHB, Fluka, Reference 90922) with a final inoculum of 5×10^5 cfu/ml. Microplates are incubated overnight at 35° C. MIC is defined as the lowest concentration of antimicrobial agent that completely prevents visible bacterial growth. All manipulations, but compound handling (in pure DMSO), are performed under sterile conditions. The final concentration of DMSO in the plates is 2%.

[1] = test system: Staphylococcus aureus NRS482; test: MIC determination using agar dilution method; assay type: cell-based; details: MRSA / NRS 482, read-out: MIC (μg/ml) NRS482
Procedure: as §1
(§2) This protocol is compliant with Clinical Laboratory Standards Institute (CLSI) methodology as described in M7-A7 document of the CLSI. The compound to be tested is incorporated into Mueller-Hinton Agar medium (Fluka, Reference 70191) at one concentration per plate according to a geometric series of reason 2. Plates are inoculated with mid-log phase bacteria (inoculum=1×10^4 cfu/spot) and incubated overnight at 35° C. […] All manipulations, but compound handling (in pure DMSO), are performed under sterile conditions. The final DMSO concentration of DMSO in the plates is 2%. Vancomycin is used as reference.

[2] = test system: Staphylococcus aureus NRS386; test: MIC determination using agar dilution method; assay type: cell-based; details: MRSA / NRS 386, read-out: MIC (μg/ml) NRS386
Procedure: as §1, §2

[3] = test system: Staphylococcus aureus NRS128; test: MIC determination using agar dilution method; assay type: cell-based; details: MSSA / NRS 128, read-out: MIC (μg/ml) NRS128
Procedure: as §1, §2

[4] = test system: Staphylococcus aureus NRS383; test: MIC determination using agar dilution method; assay type: cell-based; details: MRSA / NRS 383, read-out: MIC (μg/ml) NRS383
Procedure: as §1, §2

[5] = test system: Staphylococcus aureus NRS121; test: MIC determination using agar dilution method; assay type: cell-based; details: MRSA / NRS 121, read-out: MIC (μg/ml) NRS121
Procedure: as §1, §2

[6] = test system: Staphylococcus aureus NRS119; test: MIC determination using agar dilution method; assay type: cell-based; details: MRSA / NRS 119, read-out: MIC (μg/ml) NRS119
Procedure: as §1, §2

[7] = test system: Staphylococcus aureus NRS127; test: MIC determination using agar dilution method; assay type: cell-based; details: MRSA / NRS 127, read-out: MIC (μg/ml) NRS127
Procedure: as §1, §2

[8] = test system: Staphylococcus aureus NRS22; test: MIC determination using agar dilution method; assay type: cell-based; details: MRSA / NRS 22, read-out: MIC (μg/ml) NRS22
Procedure: as §1, §2

[9] = test system: Staphylococcus aureus NRS484; test: MIC determination using agar dilution method; assay type: cell-based; details: MRSA / NRS 484, read-out: MIC (μg/ml) NRS484
Procedure: as §1, §2

[10] = test system: Staphylococcus aureus NRS483; test: MIC determination using agar dilution method; assay type: cell-based; details: MRSA / NRS 483, read-out: MIC (μg/ml) NRS483
Procedure: as §1, §2

[11] = test system: Staphylococcus aureus NRS123; test: MIC determination using agar dilution method; assay type: cell-based; details: MRSA / NRS 123, read-out: MIC (μg/ml) NRS123
Procedure: as §1, §2

[12] = test system: Staphylococcus aureus NRS382; test: MIC determination using agar dilution method; assay type: cell-based; details: MRSA / NRS 382, read-out: MIC (μg/ml) NRS382
Procedure: as §1, §2

[13] = test system: Staphylococcus aureus NRS384; test: MIC determination using agar dilution method; assay type: cell-based; details: MRSA / NRS 384, read-out: MIC (μg/ml) NRS384
Procedure: as §1, §2

[14] = test system: Staphylococcus aureus NRS120; test: MIC determination using agar dilution method; assay type: cell-based; details: MRSA / NRS 120, read-out: MIC (μg/ml) NRS120
Procedure: as §1, §2

[15] = test system: Staphylococcus aureus NRS385; test: MIC determination using agar dilution method; assay type: cell-based; details: MRSA / NRS 385, read-out: MIC (μg/ml) NRS385
Procedure: as §1, §2

[16] = test system: Staphylococcus aureus NRS192; test: MIC determination using agar dilution method; assay type: cell-based; details: MRSA / NRS 192, read-out: MIC (μg/ml) NRS192
Procedure: as §1, §2

[17] = test system: Staphylococcus aureus NRS269; test: MIC determination using agar dilution method; assay type: cell-based; details: MRSA / NRS 269, read-out: MIC (μg/ml) NRS269
Procedure: as §1, §2

[18] = test system: Staphylococcus aureus NRS100; test: MIC determination using agar dilution method; assay type: cell-based; details: MRSA / NRS 100, read-out: MIC (μg/ml) NRS100
Procedure: as §1, §2

[19] = test system: Staphylococcus aureus NRS130; test: MIC determination using agar dilution method; assay type: cell-based; details: MSSA / NRS 130, read-out: MIC (μg/ml) NRS130
Procedure: as §1, §2

[20] = test system: Staphylococcus aureus NRS262; test: MIC determination using agar dilution method; assay type: cell-based; details: MSSA / NRS 262, read-out: MIC (μg/ml) NRS262
Procedure: as §1, §2

[21] = test system: Staphylococcus aureus strain ATCC 29213; test: In vivo antibacterial activity, thigh infection model in neutropenic Swiss mice; details: 100 mg/kg orally, 1.5 h after infection, FIG. 1

O=C1CCc2cc(/C=C/C(=O)N3CC(OCc4cccs4)C3)cnc2N1 [Example 12, 6-{(1E)-3-Oxo-3-[3-(2-thienylmethoxy)azetidin-1-yl]prop-1-en-1-yl}-3,4-dihydro-1,8-naphthyridin-2(1H)-one]
MIC (S. aureus CIP 54.146): 4 µg/mL (≈ 10.8 µM)
MIC [1]: 4 µg/mL (≈ 10.8 µM)
MIC [2]: 4 µg/mL (≈ 10.8 µM)
MIC [3]: 1 µg/mL (≈ 2.71 µM)
MIC [4]: 4 µg/mL (≈ 10.8 µM)
MIC [5]: 2 µg/mL (≈ 5.41 µM)
MIC [6]: 2 µg/mL (≈ 5.41 µM)
MIC [7]: 2 µg/mL (≈ 5.41 µM)
MIC [8]: 4 µg/mL (≈ 10.8 µM)
MIC [9]: 4 µg/mL (≈ 10.8 µM)
MIC [10]: 4 µg/mL (≈ 10.8 µM)
MIC [11]: 2 µg/mL (≈ 5.41 µM)
MIC [12]: 4 µg/mL (≈ 10.8 µM)
MIC [13]: 4 µg/mL (≈ 10.8 µM)
MIC [14]: 2 µg/mL (≈ 5.41 µM)
MIC [15]: 2 µg/mL (≈ 5.41 µM)
MIC [16]: 4 µg/mL (≈ 10.8 µM)
MIC [17]: 4 µg/mL (≈ 10.8 µM)
MIC [18]: 2 µg/mL (≈ 5.41 µM)
MIC [19]: 2 µg/mL (≈ 5.41 µM)
MIC [20]: 4 µg/mL (≈ 10.8 µM)
in vivo antibacterial activity (bacterial burden in the thigh of infected mice) [21]: able to protect mice against thigh dissemination
